From ChEMBL document CHEMBL1201862, “PubChem BioAssay data set” (2004)
Blank lines part the entries; values can stand above or below the compound they belong to. Activity calls are given as the source filed them. Unless noted, the rule behind the calls is not given here.

Key:
Phospholipase D1 = Phospholipase D1 (Homo sapiens, UniProt Q13393); experiment: PLD1 inhibitor potency in cells, dose response (AID 602151); assay type: functional;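 also: cellular PLD1 assay in Calu-1 cells stimulated with PMA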
Phospholipase D2 = Phospholipase D2 (Homo sapiens, UniProt O14939); experiment: PLD2 inhibitor potency in cells, dose response (AID 602147); assay type: functional;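 also: cellular assay in HEK293 cells overexpressing GFP-tagged PLD2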
[1] = target: Latent membrane protein 1 (Human herpesvirus 4 (strain B95-8), UniProt P03230); experiment: TES1-eGFP NF-kB reporter inhibition versus Tet-On dsRED, dose response, selectivity assay for LMP1 NF-kB inhibitor project, imaging, HEK293T, dual-color eGFP/dsRED, cherry-picks (AID 588398); assay type: functional, cell-based
Sequence of Latent membrane protein 1 (P03230 whole entry): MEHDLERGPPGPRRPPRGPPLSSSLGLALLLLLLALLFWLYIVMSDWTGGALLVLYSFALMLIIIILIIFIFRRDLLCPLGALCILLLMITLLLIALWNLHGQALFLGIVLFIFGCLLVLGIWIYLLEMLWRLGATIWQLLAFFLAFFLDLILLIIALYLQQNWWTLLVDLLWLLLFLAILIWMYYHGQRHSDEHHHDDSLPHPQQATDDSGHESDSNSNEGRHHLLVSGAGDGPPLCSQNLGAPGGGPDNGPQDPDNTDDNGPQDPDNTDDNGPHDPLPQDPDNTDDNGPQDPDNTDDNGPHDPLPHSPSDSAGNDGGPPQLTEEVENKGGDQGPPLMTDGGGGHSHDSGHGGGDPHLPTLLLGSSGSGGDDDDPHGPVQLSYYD

[2] = target: T1, Short transient receptor potential channel 4 (Mus musculus, UniProt Q9QUQ5); experiment: TRPC4 inhibition under acetylcholine activation, SAR follow-up, cell-based, acetylcholine stimulus, HEK293 TRPC4, Fluo-4 (AID 492996); assay type: functional
T1 sequence (Q9QUQ5 whole entry): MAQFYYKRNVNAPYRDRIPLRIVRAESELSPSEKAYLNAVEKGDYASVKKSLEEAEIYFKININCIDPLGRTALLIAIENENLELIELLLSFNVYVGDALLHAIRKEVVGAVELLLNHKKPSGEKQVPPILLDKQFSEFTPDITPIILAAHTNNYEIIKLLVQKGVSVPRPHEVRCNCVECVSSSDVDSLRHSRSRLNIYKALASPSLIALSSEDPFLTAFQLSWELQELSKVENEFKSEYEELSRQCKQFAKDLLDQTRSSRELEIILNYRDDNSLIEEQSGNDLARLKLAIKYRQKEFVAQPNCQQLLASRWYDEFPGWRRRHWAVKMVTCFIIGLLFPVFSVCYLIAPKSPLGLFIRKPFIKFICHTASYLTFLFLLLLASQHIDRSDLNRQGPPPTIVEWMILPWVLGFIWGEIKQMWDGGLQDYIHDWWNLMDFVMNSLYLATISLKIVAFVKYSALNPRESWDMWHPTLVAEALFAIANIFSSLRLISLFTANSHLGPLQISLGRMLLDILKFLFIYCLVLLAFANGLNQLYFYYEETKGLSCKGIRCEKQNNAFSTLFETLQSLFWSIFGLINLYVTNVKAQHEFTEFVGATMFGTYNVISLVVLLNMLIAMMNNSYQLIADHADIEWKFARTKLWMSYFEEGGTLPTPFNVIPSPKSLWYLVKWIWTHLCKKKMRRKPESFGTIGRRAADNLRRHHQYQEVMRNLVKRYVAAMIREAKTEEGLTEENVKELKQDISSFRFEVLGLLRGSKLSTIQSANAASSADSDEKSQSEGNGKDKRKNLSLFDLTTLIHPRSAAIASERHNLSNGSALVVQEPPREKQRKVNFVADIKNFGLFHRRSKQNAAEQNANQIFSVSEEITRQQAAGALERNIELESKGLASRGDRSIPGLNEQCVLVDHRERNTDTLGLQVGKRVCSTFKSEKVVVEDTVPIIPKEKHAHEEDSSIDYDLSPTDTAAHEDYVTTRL

[3] = target: T1, Short transient receptor potential channel 4; experiment: TRPC4 inhibitor concentration-response, dose response, cell-based, HEK293 TRPC4/mu-opioid, DAMGO stimulus, Fluo-4 (AID 492994); assay type: functional
[4] = target: T1, Short transient receptor potential channel 4; experiment: SAR Analysis for the identification of selective inhibits of the transient receptor potential cation channel C4 (TRPC4): Automated Electrophysiology. [Related pubchem assays (depositor defined):AID2256]; assay type: functional
[5] = target: Short transient receptor potential channel 6 (Mus musculus, UniProt Q61143); experiment: TRPC6 inhibition potency of TRPC4 inhibitor analogs, dose response, selectivity assay for selective TRPC4 inhibitor project, HEK293 cells, membrane potential dye, IC50 (AID 492987); assay type: functional, cell-based
Sequence of Short transient receptor potential channel 6 (Q61143 whole entry): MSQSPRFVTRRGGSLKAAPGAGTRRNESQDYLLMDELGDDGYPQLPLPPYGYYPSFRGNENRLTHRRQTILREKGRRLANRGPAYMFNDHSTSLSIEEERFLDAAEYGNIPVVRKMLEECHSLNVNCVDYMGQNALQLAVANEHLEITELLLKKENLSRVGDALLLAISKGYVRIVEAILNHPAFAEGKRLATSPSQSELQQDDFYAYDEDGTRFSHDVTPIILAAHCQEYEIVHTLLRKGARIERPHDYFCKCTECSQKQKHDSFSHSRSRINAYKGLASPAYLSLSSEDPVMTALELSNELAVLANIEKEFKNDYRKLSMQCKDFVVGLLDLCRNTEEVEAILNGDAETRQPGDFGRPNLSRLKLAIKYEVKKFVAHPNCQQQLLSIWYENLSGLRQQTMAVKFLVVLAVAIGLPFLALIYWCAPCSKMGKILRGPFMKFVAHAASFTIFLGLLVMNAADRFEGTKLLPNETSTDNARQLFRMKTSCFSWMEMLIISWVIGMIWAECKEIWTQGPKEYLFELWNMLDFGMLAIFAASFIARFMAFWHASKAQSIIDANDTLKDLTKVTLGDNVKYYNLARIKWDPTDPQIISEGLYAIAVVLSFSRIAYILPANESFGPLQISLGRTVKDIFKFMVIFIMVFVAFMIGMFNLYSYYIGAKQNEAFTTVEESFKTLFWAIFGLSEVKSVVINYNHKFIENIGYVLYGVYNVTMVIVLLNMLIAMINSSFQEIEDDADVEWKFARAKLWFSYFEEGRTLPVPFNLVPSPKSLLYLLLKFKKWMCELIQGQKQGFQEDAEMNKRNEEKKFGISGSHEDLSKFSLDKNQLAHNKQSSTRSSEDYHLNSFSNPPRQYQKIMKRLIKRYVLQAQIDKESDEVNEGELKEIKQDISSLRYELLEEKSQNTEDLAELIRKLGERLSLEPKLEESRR

[6] = target: Beta-adrenergic receptor kinase 1 (Homo sapiens, UniProt P25098); experiment: aptamer displacement from bead-bound GRK2 – biochemical, cherry pick 1, bead flow cytometry, dose response (AID 504500)
Sequence of Beta-adrenergic receptor kinase 1 (P25098 whole entry): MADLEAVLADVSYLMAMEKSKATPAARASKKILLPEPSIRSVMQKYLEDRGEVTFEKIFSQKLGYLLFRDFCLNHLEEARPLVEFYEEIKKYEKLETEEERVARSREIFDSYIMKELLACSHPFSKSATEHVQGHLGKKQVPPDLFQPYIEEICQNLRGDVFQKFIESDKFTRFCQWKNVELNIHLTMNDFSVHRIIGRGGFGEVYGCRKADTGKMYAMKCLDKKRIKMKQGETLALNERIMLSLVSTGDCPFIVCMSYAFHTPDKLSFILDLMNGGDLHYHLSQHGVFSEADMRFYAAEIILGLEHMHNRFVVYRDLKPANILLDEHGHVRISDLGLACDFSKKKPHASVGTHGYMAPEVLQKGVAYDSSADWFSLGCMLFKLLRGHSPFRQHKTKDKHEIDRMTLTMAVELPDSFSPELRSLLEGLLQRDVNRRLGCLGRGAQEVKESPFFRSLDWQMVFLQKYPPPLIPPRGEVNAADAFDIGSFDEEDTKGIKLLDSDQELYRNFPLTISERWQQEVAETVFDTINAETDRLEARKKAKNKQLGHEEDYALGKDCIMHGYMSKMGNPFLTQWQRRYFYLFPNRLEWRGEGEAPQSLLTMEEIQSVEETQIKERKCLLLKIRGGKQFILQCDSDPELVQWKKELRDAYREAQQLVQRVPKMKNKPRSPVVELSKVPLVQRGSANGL

[7] = target: T2, Small ubiquitin-related modifier 1 (Homo sapiens, UniProt P63165); experiment: inhibitors of SUMO1 peptide binding, dose response, biochemical, fluorescence polarization, uHTS hits (AID 624382); assay type: functional; details: read-out: IC50_Mean
T2 sequence (P63165 whole entry, the tested form may be a part): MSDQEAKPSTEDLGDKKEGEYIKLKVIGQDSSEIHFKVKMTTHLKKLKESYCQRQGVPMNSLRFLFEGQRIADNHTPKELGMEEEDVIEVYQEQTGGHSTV

[8] = target: T3, Carboxy-terminal domain RNA polymerase II polypeptide A small phosphatase 1 (Homo sapiens, UniProt Q9GZU7); experiment: inhibitors of CTDSP1, concentration-response testing, biochemical assay, absorbance-based, actives from ultra-high-throughput screening (AID 540297); assay type: functional
T3 sequence (Q9GZU7 whole entry): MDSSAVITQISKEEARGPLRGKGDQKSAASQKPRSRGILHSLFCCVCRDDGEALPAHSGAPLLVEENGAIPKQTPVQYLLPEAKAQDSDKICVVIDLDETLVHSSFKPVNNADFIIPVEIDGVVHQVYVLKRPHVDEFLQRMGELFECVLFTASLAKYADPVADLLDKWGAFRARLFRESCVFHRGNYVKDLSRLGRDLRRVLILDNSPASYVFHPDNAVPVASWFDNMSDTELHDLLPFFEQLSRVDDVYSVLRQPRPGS

[9] = target: T2, Small ubiquitin-related modifier 1; experiment: inhibitors of SUMO1 partner interactions, dose response, biochemical, FRET (AID 624383); assay type: functional; details: read-out: IC50_Mean
[10] = target: DNA (cytosine-5)-methyltransferase 1 (Homo sapiens, UniProt P26358); experiment: DNMT1 methyltransferase inhibitors, confirmation, biochemical, fluorescent molecular beacon (AID 602386); assay type: functional
Sequence of DNA (cytosine-5)-methyltransferase 1 (P26358 whole entry): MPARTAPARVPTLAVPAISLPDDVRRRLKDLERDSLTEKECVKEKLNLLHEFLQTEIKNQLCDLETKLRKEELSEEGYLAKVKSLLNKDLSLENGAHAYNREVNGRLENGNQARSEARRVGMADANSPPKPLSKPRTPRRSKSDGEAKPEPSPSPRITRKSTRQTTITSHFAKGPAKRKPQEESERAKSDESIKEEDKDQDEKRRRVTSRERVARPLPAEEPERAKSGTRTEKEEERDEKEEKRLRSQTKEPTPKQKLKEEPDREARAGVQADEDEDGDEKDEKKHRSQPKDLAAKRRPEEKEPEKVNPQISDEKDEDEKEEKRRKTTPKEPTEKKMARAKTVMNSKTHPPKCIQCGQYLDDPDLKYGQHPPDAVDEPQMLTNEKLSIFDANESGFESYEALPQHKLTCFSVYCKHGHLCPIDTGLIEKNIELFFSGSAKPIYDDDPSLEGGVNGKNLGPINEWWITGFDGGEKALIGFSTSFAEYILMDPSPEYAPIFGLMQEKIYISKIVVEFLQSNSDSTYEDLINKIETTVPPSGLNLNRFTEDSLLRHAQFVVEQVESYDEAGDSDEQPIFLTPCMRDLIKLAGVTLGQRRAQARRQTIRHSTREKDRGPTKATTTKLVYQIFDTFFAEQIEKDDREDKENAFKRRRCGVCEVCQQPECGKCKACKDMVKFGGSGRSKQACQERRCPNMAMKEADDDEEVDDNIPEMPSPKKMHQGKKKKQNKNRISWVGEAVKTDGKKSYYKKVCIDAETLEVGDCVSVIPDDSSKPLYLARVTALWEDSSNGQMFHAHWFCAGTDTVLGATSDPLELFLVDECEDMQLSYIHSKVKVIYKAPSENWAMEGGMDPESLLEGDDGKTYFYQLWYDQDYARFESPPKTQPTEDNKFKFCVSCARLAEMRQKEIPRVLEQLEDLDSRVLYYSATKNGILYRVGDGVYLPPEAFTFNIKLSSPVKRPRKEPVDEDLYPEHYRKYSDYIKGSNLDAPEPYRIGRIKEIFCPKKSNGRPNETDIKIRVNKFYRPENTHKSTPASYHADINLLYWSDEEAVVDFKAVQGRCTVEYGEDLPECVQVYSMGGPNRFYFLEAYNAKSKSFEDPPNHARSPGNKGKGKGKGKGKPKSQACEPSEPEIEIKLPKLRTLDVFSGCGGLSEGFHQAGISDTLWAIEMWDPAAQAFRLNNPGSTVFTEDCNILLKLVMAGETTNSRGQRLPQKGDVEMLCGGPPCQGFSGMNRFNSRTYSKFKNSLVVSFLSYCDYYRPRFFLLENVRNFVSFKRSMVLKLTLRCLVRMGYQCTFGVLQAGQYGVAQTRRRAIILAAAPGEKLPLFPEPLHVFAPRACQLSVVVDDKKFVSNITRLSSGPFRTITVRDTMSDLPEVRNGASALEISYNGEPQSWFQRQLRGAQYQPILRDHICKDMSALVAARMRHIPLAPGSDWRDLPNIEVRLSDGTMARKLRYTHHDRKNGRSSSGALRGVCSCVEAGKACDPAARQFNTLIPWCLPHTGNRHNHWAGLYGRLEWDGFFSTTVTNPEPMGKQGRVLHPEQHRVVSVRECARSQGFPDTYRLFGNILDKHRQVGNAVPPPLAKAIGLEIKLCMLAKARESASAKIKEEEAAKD

CAAX prenyl protease 2 [11] = target: T4, CAAX prenyl protease 2 (Saccharomyces cerevisiae S288c, UniProt Q03530); assay type: biochemical
T4 sequence (Q03530 whole entry): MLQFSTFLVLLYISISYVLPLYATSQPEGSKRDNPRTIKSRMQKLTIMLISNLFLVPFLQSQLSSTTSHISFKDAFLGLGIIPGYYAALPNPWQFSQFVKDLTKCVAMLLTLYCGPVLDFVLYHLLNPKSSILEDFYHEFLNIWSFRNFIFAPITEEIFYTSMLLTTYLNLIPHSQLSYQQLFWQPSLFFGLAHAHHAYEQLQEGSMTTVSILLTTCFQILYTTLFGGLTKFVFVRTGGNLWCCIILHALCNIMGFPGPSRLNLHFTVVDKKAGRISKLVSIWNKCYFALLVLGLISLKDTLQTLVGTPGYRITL

CAAX prenyl protease 2 [12] = target: T5, CAAX prenyl protease 2 (Homo sapiens, UniProt Q9Y256); experiment: human Rce1 protease inhibitors, dose response, biochemical, yeast membranes, quenched-peptide fluorescence, cherry-pick (AID 588849)
T5 sequence (Q9Y256 whole entry): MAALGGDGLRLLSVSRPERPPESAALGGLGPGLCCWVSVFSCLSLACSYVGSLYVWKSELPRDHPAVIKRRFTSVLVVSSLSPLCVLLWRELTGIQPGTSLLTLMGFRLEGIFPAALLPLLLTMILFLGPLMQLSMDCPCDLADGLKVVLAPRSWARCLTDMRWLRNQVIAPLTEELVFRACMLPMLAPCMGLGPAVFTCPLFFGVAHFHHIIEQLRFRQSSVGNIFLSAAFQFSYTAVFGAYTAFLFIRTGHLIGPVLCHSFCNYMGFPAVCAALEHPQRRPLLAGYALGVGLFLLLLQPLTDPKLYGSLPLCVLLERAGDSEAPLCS

CAAX prenyl protease 2 [13] = target: T5, CAAX prenyl protease 2; experiment: human Rce1 protease inhibitors, dose response, biochemical, plate reader, dry powder samples (AID 588848)
CAAX prenyl protease 2 [14] = target: T4, CAAX prenyl protease 2; experiment: yeast Rce1 CaaX protease inhibitors, dose response, biochemical, plate reader, dry powder retest (AID 588851)
[15] = target: Beta-2 adrenergic receptor (Homo sapiens, UniProt P07550); experiment: beta2AR agonists driving receptor internalization, dose response, cell-based, FAP fluorogen, flow cytometry, cherry pick 1 (AID 588763); assay type: functional
Sequence of Beta-2 adrenergic receptor (P07550 whole entry): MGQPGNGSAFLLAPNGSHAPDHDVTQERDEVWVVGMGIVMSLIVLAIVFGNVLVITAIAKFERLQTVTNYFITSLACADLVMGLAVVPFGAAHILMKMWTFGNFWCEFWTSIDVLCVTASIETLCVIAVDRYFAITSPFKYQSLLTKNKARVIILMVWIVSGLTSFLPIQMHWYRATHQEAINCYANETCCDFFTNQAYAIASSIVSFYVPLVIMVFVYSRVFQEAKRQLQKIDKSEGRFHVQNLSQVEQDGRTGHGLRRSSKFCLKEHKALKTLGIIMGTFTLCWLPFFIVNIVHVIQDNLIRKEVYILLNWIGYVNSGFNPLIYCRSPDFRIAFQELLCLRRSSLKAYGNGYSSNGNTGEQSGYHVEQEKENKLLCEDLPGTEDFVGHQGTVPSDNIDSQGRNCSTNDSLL

Bcl-2-like protein 10 = target: T6, Bcl-2-like protein 10 (Homo sapiens, UniProt Q9HD36); experiment: Isothermal titration calorimetry (ITC) with Bcl-B and compounds active in primary screen. [Related pubchem assays (depositor defined):AID1693]; assay type: functional
T6 sequence (Q9HD36 whole entry): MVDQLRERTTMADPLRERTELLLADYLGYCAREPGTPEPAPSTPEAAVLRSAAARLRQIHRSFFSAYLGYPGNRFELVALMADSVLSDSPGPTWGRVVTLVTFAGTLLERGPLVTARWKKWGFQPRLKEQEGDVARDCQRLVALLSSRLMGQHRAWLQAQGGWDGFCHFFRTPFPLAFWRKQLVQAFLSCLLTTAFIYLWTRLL

[16] = Fluorescence Cell-Based Dose Response to Identify Inhibitors of Thrombin Receptor-Activating Peptide SFLLRN-Mediated P-Selectin Induction on Platelets. [Related pubchem assays: 1663 (Primary HTS), 1889 (retest at dose ), 1891 (counterscreen), 1678 (Project Summary)]; assay type: functional
[17] = blockers of SFLLRN-triggered platelet ATP secretion – cell-based, human platelets, luminescence, dry powder, dose response (AID 493100); assay type: functional
[18] = Luminescence Cell-Based Dose Confirmation HTS to Identify Inhibitors of Platelet Dense Granule Release. [Related pubchem assays: 1663 (Primary HTS), 1678 (Summary of Project)]; assay type: functional
[19] = Luminescence Cell-Based Dose Response Follow up to Identify Inhibitors of Platelet Dense Granule Release. [Related pubchem assays (depositor defined):AID1663, AID1678, AID2398]; assay type: functional
[20] = target: Luciferin 4-monooxygenase (Photinus pyralis, UniProt P08659); experiment: firefly luciferase enzyme inhibitors, dose response, biochemical, luminescence (AID 1891)
Sequence of Luciferin 4-monooxygenase (P08659 whole entry): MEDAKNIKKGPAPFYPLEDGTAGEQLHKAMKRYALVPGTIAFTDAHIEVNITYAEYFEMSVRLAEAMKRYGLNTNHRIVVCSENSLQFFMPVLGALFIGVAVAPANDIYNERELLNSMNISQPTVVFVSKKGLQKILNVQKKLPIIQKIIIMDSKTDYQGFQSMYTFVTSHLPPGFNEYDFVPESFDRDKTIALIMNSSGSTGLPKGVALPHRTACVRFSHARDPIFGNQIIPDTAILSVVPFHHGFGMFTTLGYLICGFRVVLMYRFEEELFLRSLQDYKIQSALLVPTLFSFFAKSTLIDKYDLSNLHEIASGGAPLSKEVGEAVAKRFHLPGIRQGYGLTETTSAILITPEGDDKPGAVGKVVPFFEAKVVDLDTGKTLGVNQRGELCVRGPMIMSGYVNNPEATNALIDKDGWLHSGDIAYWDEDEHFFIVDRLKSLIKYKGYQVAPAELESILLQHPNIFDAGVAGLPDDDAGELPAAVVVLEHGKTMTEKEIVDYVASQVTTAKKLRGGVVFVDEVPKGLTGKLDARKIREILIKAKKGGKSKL

[21] = inhibitors of SFLLRN-triggered platelet P-selectin exposure, dose response, cell-based, fluorescence, flow cytometry, human platelets (AID 2511); assay type: functional

SMILES: O=C(c1cnc2ccccc2c1)N1CCCC1CN1CCC(n2c(=O)[nH]c3ccccc32)CC1 (centres undefined)
- IC50 (Phospholipase D1): 2.8 µM (active)
- IC50 (Phospholipase D2): 3.75 µM (active)

- AC50 [1]: 4.29 µM (active)
SMILES: CC(=NNC(=S)N1CCCCC1)c1ccccn1

- IC50 [2]: 39.1 µM (active)
- IC50 [3]: 1.84 µM (active)
- IC50 [4]: 3.59 µM (active)
- IC50 [5]: 11.9 µM (active)
SMILES: Cc1cc(N2CCCC2)nc2ccccc12

SMILES: CCOC(=O)C(C)N1C(=O)S/C(=C\c2ccc(-c3ccccc3C(=O)O)o2)C1=O (centres undefined)
- EC50 [6]: 3.05 µM (active)
- IC50 [7]: > 66.6 µM (inactive)
- IC50 [8]: 1.88 µM (active)
- IC50 [9]: 10.3 µM (active)
- IC50 [10]: 6.76 µM (active)

- AC50 (CAAX prenyl protease 2 [11]): 0.55 µM (active)
- AC50 (CAAX prenyl protease 2 [12]): 17.3 µM (active)
- AC50 (CAAX prenyl protease 2 [13]): 60.6 µM (active)
- AC50 (CAAX prenyl protease 2 [14]): 4.85 µM (active)
SMILES: CN(C(=O)COC(=O)c1cc([N+](=O)[O-])ccc1Sc1ccccc1)C1CCS(=O)(=O)C1 (centres undefined)

- EC50 [15]: 0.571 µM (active)
SMILES: CCOC(=O)c1ccc(N2C(=O)c3[nH]nc(-c4ccco4)c3C2c2cccc([N+](=O)[O-])c2)cc1 (centres undefined)

- IC50 (Bcl-2-like protein 10): 3.16 µM (active)
SMILES: Cc1ccc(C=NNC(=O)CSc2nnc(-c3ccc(Cl)cc3)n2-c2ccccc2)o1

SMILES: Cc1ccc(-n2c(N)c(C#N)c(-c3ccccc3)c(C#N)c2=O)cc1
- EC50 [16]: < 0.3 µM (active)
- AC50 [17]: 7.52 µM (active)
- EC50 [18]: 3.22 µM (active)
- EC50 [19]: 0.36 µM (active)
- EC50 [20]: > 112 µM (not active)
- EC50 [21]: < 3 µM (active)
